{"source": "paper PMC2890073", "about": "(Immunogenetics, 2010)", "key": {"HLA-B*0702": {"target": "HLA-B*0702 (Homo sapiens, UniProt P01889)", "assay": "HLA-B*0702 peptide binding assay"}, "HLA-B*5301": {"target": "HLA-B*5301 (Homo sapiens, UniProt P01889, A329T/A93T/A95T/C349S/D201E/D98Y/E176V/E187L/E204Q/E69T/G107R/I218V/K202T/L105A/L119I/N104I/Q94N/R106L/R155S/R180L/S101N/S121R/S35A/S48A/T118I/V127L/V306I/V36M/Y140S/Y91F)", "assay": "HLA-B*5301 peptide binding assay"}, "HLA-B*3501": {"target": "HLA-B*3501 (Homo sapiens, UniProt P01889, A329T/A93T/A95T/C349S/D201E/D98Y/E176V/E187L/E204Q/E69T/I218V/K202T/L119I/Q94N/R155S/R180L/S121R/S35A/S48A/T118I/V127L/V306I/V36M/Y140S/Y91F)", "assay": "HLA-B*3501 peptide binding assay"}}, "note": "Where no end group is shown, it is not given here."}
{"molecule": "CC(C)C[C@H](NC(=O)[C@@H]1CCCN1C(=O)[C@@H](NC(=O)[C@H](CCC(N)=O)NC(=O)[C@@H]1CCCN1C(=O)[C@@H](NC(=O)[C@@H](NC(=O)[C@@H]1CCCN1C(=O)[C@@H](N)Cc1ccccc1)C(C)C)[C@@H](C)O)C(C)C)C(=O)O", "values": [{"measurement": "IC50", "setting": "HLA-B*0702", "value": 1, "unit": "nM"}]}
{"molecule": "CC(C)C[C@H](NC(=O)[C@@H]1CCCN1C(=O)[C@@H](N)Cc1ccc(O)cc1)C(=O)N[C@H](C(=O)N[C@@H](Cc1ccccc1)C(=O)NCC(=O)N[C@@H](Cc1c[nH]c2ccccc12)C(=O)N[C@@H](CS)C(=O)N[C@@H](Cc1ccccc1)C(=O)O)[C@@H](C)O", "values": [{"measurement": "IC50", "setting": "HLA-B*5301", "value": 9.5, "unit": "nM"}]}
{"molecule": "HPDIVIYQY", "values": [{"measurement": "IC50", "setting": "HLA-B*3501", "value": 7.9, "unit": "nM"}]}
